Data on 8 compounds can be found in patent US9056855B2, “Metalloenzyme inhibitor compounds” (Viamet Pharmaceuticals, Inc., priority 2010, dated 2015).

In one experiment the target is T1, CYP17 (Rattus norvegicus, UniProt P11715).
T1 construct: from tissue; host or cells: rat testis (pooled microsomes)
T1 sequence (P11715 1-507): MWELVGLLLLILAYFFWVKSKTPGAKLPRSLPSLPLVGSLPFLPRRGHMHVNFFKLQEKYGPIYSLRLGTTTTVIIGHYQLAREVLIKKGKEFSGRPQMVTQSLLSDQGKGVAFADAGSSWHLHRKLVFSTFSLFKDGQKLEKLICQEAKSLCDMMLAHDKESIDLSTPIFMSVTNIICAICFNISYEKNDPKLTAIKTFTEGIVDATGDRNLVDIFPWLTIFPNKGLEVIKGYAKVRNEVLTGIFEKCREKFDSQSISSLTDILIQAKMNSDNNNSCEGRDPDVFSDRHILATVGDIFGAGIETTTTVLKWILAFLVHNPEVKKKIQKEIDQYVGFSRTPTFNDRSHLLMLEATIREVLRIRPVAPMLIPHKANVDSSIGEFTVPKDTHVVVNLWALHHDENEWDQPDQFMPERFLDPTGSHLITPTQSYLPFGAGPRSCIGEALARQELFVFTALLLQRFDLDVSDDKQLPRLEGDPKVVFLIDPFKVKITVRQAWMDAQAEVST
As to the kind of experiment: Inhibition of CYP17 (rat testicular microsomes). The format is biochemical. The settings on record: pooled rat testicular microsomes. The protocol:
CYP17 activity was assayed according to the following procedure. […] The individual test compound and isozyme inhibitor solutions were then diluted 20-fold with deionized water (50:950 v/v) to concentrations of 135, 27, 4.5, 0.9, 0.15, 0.03 and 0.005 μM. […] For active controls, blank test compound diluent was added in place of test compound solution.

In a further experiment the target is CYP2C19 (Homo sapiens, UniProt P33261). As to the kind of experiment: Inhibition of liver cytochrome P450 enzymes, CYP2C19 (human liver microsomes). On the procedure:
(§1) A. Inhibition of Liver Cytochrome P450 Enzymes
(§2) Solutions of each test compound were separately prepared at concentrations of 20000, 6000, 2000, 600, 200, and 60 μM by serial dilution with DMSO:MeCN (50:50 v/v). The individual test compound solutions were then diluted 20-fold with DMSO:MeCN:deionized water (5:5:180 v/v/v) to concentrations of 1000, 300, 100, 30, 10, and 3 μM. […] The mixed inhibitor solutions were then diluted 20-fold with DMSO:MeCN:deionized water (5:5:180 v/v/v) to concentrations of 300, 100, 30, 10, 3, 1, 0.3, and 0.1 μM. The percent of organic solvent attributable to the test compound or inhibitor mixture in the final reaction mixture was 2% v/v.
(§3) Pooled human liver microsome suspension (20 mg/mL) was diluted with phosphate buffer to obtain a 5 mg/mL suspension. A solution of NADPH was prepared in phosphate buffer at a concentration of 5 mM. Separate stock solutions of each substrate were prepared in DMSO:MeCN (50:50 v/v), mixed, and diluted in phosphate buffer to obtain a single solution containing each substrate at five times its experimentally determined Km concentration. The percent of organic solvent attributable to substrate mixture in the final reaction mixture was 1% v/v.
(§4) Substrate solution and microsome suspension were combined in a 1:1 volume ratio, mixed, and distributed to reaction wells of a PCR plate. Individual test compound or combined inhibitor solutions at each concentration were added to the wells and mixed by repetitive aspirate-dispense cycles. […] Reaction mixtures were allowed to equilibrate at 37° C. for approximately two minutes before adding NADPH solution to initiate reaction, followed by pipette mixing of reaction mixture. Ten minutes after addition of NADPH, the reaction mixtures were quenched with cold acetonitrile. […] A portion of the supernatant was analyzed by gradient reverse-phase HPLC with detection by electrospray ionization triple quadrupole mass spectrometry in the positive ion mode.
(§5) Data was fitted to sigmoid dose-response curves and the inhibitory potency of each test compound was determined as its IC50 value.

A further experiment has as its target CYP3A4 (Homo sapiens, UniProt P08684). The experiment in a line: Inhibition of liver cytochrome P450 enzymes, CYP3A4 (human liver microsomes). On the procedure: as §1, §2, §3, §4, §5
The target in the next experiment is CYP2C9 (Homo sapiens, UniProt P11712). The experiment in a line: Inhibition of liver cytochrome P450 enzymes, CYP2C9 (human liver microsomes). On the procedure:
as §1, §2, §3, §4, §5
A general note: Microsomes from liver hold many membrane-bound enzymes, among them those of drug oxidation.

What is called IC50 is the midpoint of a concentration-inhibition curve. Low values mean greater potency, high ones weaker potency.

The structures appear in SMILES notation.

Chain of CYP2C19 (P33261 whole entry): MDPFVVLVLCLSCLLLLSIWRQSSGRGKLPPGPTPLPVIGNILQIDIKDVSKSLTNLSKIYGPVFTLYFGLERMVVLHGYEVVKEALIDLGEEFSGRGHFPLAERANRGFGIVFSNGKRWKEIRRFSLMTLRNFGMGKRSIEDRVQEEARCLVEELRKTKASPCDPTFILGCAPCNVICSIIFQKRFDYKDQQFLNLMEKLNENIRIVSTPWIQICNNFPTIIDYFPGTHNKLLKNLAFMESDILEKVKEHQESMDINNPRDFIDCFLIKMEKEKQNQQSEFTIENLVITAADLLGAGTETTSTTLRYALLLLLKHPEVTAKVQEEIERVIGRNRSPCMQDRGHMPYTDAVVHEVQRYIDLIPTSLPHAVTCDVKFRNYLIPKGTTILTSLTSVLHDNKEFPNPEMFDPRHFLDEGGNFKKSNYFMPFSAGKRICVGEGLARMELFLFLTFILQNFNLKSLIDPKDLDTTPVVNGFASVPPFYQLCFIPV
Chain of CYP3A4 (P08684 whole entry): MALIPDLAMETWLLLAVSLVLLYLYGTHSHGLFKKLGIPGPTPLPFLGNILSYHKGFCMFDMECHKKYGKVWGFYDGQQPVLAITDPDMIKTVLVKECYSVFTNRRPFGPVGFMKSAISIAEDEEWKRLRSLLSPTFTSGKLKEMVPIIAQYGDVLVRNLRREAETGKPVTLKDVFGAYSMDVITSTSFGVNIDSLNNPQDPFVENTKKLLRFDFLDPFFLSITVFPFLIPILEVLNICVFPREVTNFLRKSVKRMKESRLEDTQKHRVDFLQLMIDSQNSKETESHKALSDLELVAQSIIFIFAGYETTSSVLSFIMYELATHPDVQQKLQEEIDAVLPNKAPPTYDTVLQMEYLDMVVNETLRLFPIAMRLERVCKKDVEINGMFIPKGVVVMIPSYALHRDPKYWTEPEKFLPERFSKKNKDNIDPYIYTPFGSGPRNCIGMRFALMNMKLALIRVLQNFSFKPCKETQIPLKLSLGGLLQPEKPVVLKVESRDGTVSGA
Chain of CYP2C9 (P11712 whole entry): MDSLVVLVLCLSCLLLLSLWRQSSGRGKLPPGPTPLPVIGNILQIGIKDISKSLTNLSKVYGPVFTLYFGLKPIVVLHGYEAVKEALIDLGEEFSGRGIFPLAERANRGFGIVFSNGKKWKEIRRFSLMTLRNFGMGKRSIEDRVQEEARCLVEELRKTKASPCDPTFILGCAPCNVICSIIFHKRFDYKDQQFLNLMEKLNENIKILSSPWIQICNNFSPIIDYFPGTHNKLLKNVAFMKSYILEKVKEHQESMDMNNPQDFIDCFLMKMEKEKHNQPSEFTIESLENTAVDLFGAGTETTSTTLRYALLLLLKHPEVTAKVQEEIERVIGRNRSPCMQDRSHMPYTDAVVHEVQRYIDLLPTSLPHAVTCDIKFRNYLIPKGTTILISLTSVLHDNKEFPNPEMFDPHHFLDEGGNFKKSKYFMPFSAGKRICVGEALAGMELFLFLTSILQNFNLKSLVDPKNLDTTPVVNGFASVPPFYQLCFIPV

Regarding `COc1cc2ccc(C(O)(c3ccncn3)C(C)C)cc2cc1OC` (centres unmarked) [Example 1, 1-(6,7-dimethoxynaphthalen-2-yl)-2-methyl-1-(pyrimidin-4-yl)propan-1-ol], the IC50 is 0.44 µM at CYP17, 8.5 µM against CYP2C19, 18 µM against CYP3A4 and 7.8 µM at CYP2C9.

In the case of `CSc1ccc2nc(C(O)(c3ccncn3)C(C)C)ccc2c1` (centres unmarked) [Example 2, 2-Methyl-1-(6-(methylthio)quinolin-2-yl)-1-(pyrimidin-4-yl)propan-1-ol], the IC50 was 0.12 µM at CYP17, 5.1 µM on CYP2C19, 19 µM at CYP3A4 and 3.3 µM against CYP2C9.

In the case of `CC(C)C(O)(c1ccncn1)c1ccc2cc(OC(F)F)ccc2n1` (centres unmarked) [Example 3, 1-(6-(Difluoromethoxy)quinolin-2-yl)-2-methyl-1-(pyrimidin-4-yl)propan-1-ol], the IC50 at CYP17 amounted to 0.08 µM; on CYP2C19 it was 8.7 µM; against CYP3A4 it was 30 µM; on CYP2C9, 3.5 µM.

For `CC(C)C(O)(c1ccncn1)c1ccc2c(C(F)(F)F)c(-c3cccs3)ccc2n1` (centres unmarked) [Example 4, 2-methyl-1-(pyrimidin-4-yl)-1-(6-(thiophen-2-yl)-5-(trifluoromethyl)quinolin-2-yl)propan-1-ol], the IC50 at CYP17 was 5.76 µM.

Regarding `CC(C)C(O)(c1ccncn1)c1ccc2c(C(F)(F)F)c(Cl)ccc2n1` (centres unmarked) [Example 5, 1-(6-chloro-5-(trifluoromethyl)quinolin-2-yl)-2-methyl-1-(pyrimidin-4-yl)propan-1-ol], half-maximal inhibition at CYP17 (IC50) required 1.75 µM.

`CC(C)C(O)(c1ccncn1)c1ccc2cc(OC(F)(F)F)ccc2n1` (centres unmarked) [Example 6, 2-methyl-1-(pyrimidin-4-yl)-1-(6-(trifluoromethoxy)quinolin-2-yl)propan-1-ol] came in with an IC50 against CYP17 of 0.98 µM. This IC50 lies about 1.8-fold lower than the previous one.

Compound `CC(C)C(O)(c1ccncn1)c1ccc2c(C(F)(F)F)c(OC(F)F)ccc2n1` (centres unmarked) [Example 7, 1-(6-(difluoromethoxy)-5-(trifluoromethyl)quinolin-2-yl)-2-methyl-1-(pyrimidin-4-yl)propan-1-ol] yielded an IC50 against CYP17 of 0.6 µM.

Compound `CC(C)C(O)(c1ccncn1)c1ccc2c(-c3cccs3)c(OC(F)F)ccc2n1` (centres unmarked) [Example 8, 1-(6-(difluoromethoxy)-5-(thiophen-2-yl)quinolin-2-yl)-2-methyl-1-(pyrimidin-4-yl)propan-1-ol] registered an IC50 against CYP17 of 1 µM. This IC50 is about 1.7-fold higher than that of the compound before.
